Holding throughout (assay type): functional, LLC-MK2
Assay [1] relates to Chlamydia trachomatis. Put plainly: Antimicrobial activity against Chlamydia trachomatis serovar G infected in […] monolayers assessed as reduction in number of microbial inclusions after 48 hrs.
For assay [2], the system named is Chlamydia trachomatis. Put plainly: Bactericidal activity against Chlamydia trachomatis serovar F infected in […] monolayers assessed as reduction in number of microbial inclusions after 48 hrs.
Assay [3] deals with Chlamydia trachomatis. Put plainly: Antimicrobial activity against Chlamydia trachomatis Ic Cal-8 serovar D infected in […] monolayers assessed as reduction in number of microbial inclusions after 48 hrs.
Assay [4] relates to Chlamydia trachomatis. Put plainly: Bactericidal activity against Chlamydia trachomatis serovar E infected in […] monolayers assessed as reduction in number of microbial inclusions after 48 hrs.
The subject of assay [5] is Chlamydia trachomatis. Put plainly: Antimicrobial activity against Chlamydia trachomatis UW-36 serovar J infected in […] monolayers assessed as reduction in number of microbial inclusions after 48 hrs. As to conditions: J/UW-36, 48 h.
Assay [6] relates to Chlamydia trachomatis. Put plainly: Antimicrobial activity against Chlamydia trachomatis serovar I infected in […] monolayers assessed as reduction in number of microbial inclusions after 48 hrs.
In assay [7] the test system is Chlamydia trachomatis. Put plainly: Antimicrobial activity against Chlamydia trachomatis serovar H infected in […] monolayers assessed as reduction in number of microbial inclusions after 48 hrs.
Assay [8] relates to Chlamydia trachomatis. Put plainly: Bactericidal activity against Chlamydia trachomatis serovar J infected in […] monolayers assessed as reduction in number of microbial inclusions after 48 hrs.
Assay [9] concerns Chlamydia trachomatis. Put plainly: Antimicrobial activity against Chlamydia trachomatis Bour serovar E infected in […] monolayers assessed as reduction in number of microbial inclusions after 48 hrs.
For assay [10], the system named is Chlamydia trachomatis. Put plainly: Bactericidal activity against Chlamydia trachomatis serovar K infected in […] monolayers assessed as reduction in number of microbial inclusions after 48 hrs.
Assay [11] has as its system Chlamydia trachomatis. Put plainly: Antimicrobial activity against Chlamydia trachomatis serovar K infected in […] monolayers assessed as reduction in number of microbial inclusions after 48 hrs.
For assay [12], the system named is Chlamydia trachomatis. Put plainly: Bactericidal activity against Chlamydia trachomatis serovar G infected in […] monolayers assessed as reduction in number of microbial inclusions after 48 hrs.
For assay [13], the system named is Chlamydia trachomatis. Put plainly: Bactericidal activity against Chlamydia trachomatis serovar H infected in […] monolayers assessed as reduction in number of microbial inclusions after 48 hrs.
The test system of assay [14] is Chlamydia trachomatis. Put plainly: Antimicrobial activity against Chlamydia trachomatis serovar D infected in […] monolayers assessed as reduction in number of microbial inclusions after 48 hrs.
Assay [15] concerns Chlamydia trachomatis. Put plainly: Antimicrobial activity against Chlamydia trachomatis 580 serovar H infected in […] monolayers assessed as reduction in number of microbial inclusions after 48 hrs.
Assay [16] has as its system Chlamydia trachomatis. Put plainly: Bactericidal activity against Chlamydia trachomatis serovar D infected in […] monolayers assessed as reduction in number of microbial inclusions after 48 hrs.
The test system of assay [17] is Chlamydia trachomatis. Put plainly: Antimicrobial activity against Chlamydia trachomatis serovar F infected in […] monolayers assessed as reduction in number of microbial inclusions after 48 hrs.
The subject of assay [18] is Chlamydia trachomatis. Put plainly: Antimicrobial activity against Chlamydia trachomatis serovar E infected in […] monolayers assessed as reduction in number of microbial inclusions after 48 hrs.
In assay [19] the test system is Chlamydia trachomatis. Put plainly: Antimicrobial activity against Chlamydia trachomatis serovar J infected in […] monolayers assessed as reduction in number of microbial inclusions after 48 hrs.
Assay [20] has as its system Chlamydia trachomatis. Put plainly: Bactericidal activity against Chlamydia trachomatis serovar I infected in […] monolayers assessed as reduction in number of microbial inclusions after 48 hrs.

By MIC is commonly meant the lowest concentration found to suppress growth. A word on the MBC: it is the smallest concentration meeting the test's criterion for killing. In the case of `CC[C@H]1OC(=O)[C@H](C)[C@@H](O[C@H]2C[C@@](C)(OC)[C@@H](O)[C@H](C)O2)[C@H](C)[C@@H](O[C@@H]2O[C@H](C)C[C@H](N(C)C)[C@H]2O)[C@](C)(O)C[C@@H](C)CN(C)[C@H](C)[C@@H](O)[C@]1(C)O` [AZITHROMYCIN], the MIC in the assay with Chlamydia trachomatis [1] was 0.5 µg/mL; in the assay on Chlamydia trachomatis [3], 0.25 µg/mL; in the assay with Chlamydia trachomatis [5] it was 0.5 µg/mL; in the assay on Chlamydia trachomatis [6], 0.5 µg/mL; with Chlamydia trachomatis [7] it was 0.25 µg/mL; in the assay on Chlamydia trachomatis [9], 0.25 µg/mL. Also, the MIC worked out at 0.5 µg/mL in the assay with Chlamydia trachomatis [11]; 0.25 µg/mL with Chlamydia trachomatis [14]; 0.25 µg/mL in the assay on Chlamydia trachomatis [15]; 0.5 µg/mL with Chlamydia trachomatis [17]; 0.25 µg/mL in the assay on Chlamydia trachomatis [18]; 0.25 µg/mL with Chlamydia trachomatis [19]. The MBC in the assay with Chlamydia trachomatis [2] worked out at 0.5 µg/mL; in the assay on Chlamydia trachomatis [3] it was 1 µg/mL; with Chlamydia trachomatis [4], 1 µg/mL; in the assay on Chlamydia trachomatis [8], 0.5 µg/mL; in the assay on Chlamydia trachomatis [10], 0.5 µg/mL; with Chlamydia trachomatis [12], 1 µg/mL. The figures for the MBC in the assay with Chlamydia trachomatis [13], with Chlamydia trachomatis [16] and in the assay on Chlamydia trachomatis [20] were 1 µg/mL, 0.5 µg/mL and 1 µg/mL, respectively.
Turning to `CC[C@H]1OC(=O)[C@H](C)[C@@H](O[C@H]2C[C@@](C)(OC)[C@@H](O)[C@H](C)O2)[C@H](C)[C@@H](O[C@@H]2O[C@H](C)C[C@H](N(C)C)[C@H]2O)[C@](C)(OC)C[C@@H](C)C(=O)[C@H](C)[C@@H](O)[C@]1(C)O` [CLARITHROMYCIN], the MIC was found to be 0.03 µg/mL in the assay with Chlamydia trachomatis [1]; 0.03 µg/mL in the assay on Chlamydia trachomatis [3]; 0.06 µg/mL with Chlamydia trachomatis [5]; 0.015 µg/mL with Chlamydia trachomatis [6]; 0.03 µg/mL in the assay on Chlamydia trachomatis [7]; 0.03 µg/mL with Chlamydia trachomatis [9]. Moreover, the MIC in the assay with Chlamydia trachomatis [11] is 0.015 µg/mL; in the assay with Chlamydia trachomatis [14], 0.03 µg/mL; with Chlamydia trachomatis [15] it was 0.06 µg/mL; in the assay with Chlamydia trachomatis [17], 0.015 µg/mL; in the assay with Chlamydia trachomatis [18], 0.015 µg/mL; in the assay with Chlamydia trachomatis [19], 0.03 µg/mL. In addition, the minimum bactericidal concentration (MBC) in the assay on Chlamydia trachomatis [2] is 0.03 µg/mL; in the assay with Chlamydia trachomatis [3], 0.06 µg/mL; in the assay on Chlamydia trachomatis [4], 0.03 µg/mL; in the assay with Chlamydia trachomatis [8] it was 0.06 µg/mL; in the assay on Chlamydia trachomatis [10] it was 0.03 µg/mL; in the assay on Chlamydia trachomatis [12] it was 0.06 µg/mL. Besides, the MBC was determined as 0.06 µg/mL in the assay on Chlamydia trachomatis [13], 0.03 µg/mL with Chlamydia trachomatis [16] and 0.03 µg/mL with Chlamydia trachomatis [20].
In the case of `C[C@H]1c2cccc(O)c2C(=O)C2=C(O)[C@]3(O)C(=O)C(C(N)=O)=C(O)[C@@H](N(C)C)[C@@H]3[C@@H](O)[C@@H]21.O` [DOXYCYCLINE], the MIC in the assay on Chlamydia trachomatis [1] was determined as 0.03 µg/mL; with Chlamydia trachomatis [3], 0.03 µg/mL; with Chlamydia trachomatis [5], 0.5 µg/mL; in the assay with Chlamydia trachomatis [6] it was 0.06 µg/mL; in the assay with Chlamydia trachomatis [7], 0.03 µg/mL; with Chlamydia trachomatis [9] it was 0.03 µg/mL. Besides, the MIC was 0.03 µg/mL with Chlamydia trachomatis [11]; 0.03 µg/mL with Chlamydia trachomatis [14]; 0.06 µg/mL in the assay with Chlamydia trachomatis [15]; 0.03 µg/mL with Chlamydia trachomatis [17]; 0.03 µg/mL with Chlamydia trachomatis [18]; 0.06 µg/mL in the assay on Chlamydia trachomatis [19]. Further, the MBC in the assay with Chlamydia trachomatis [2], in the assay on Chlamydia trachomatis [3], in the assay with Chlamydia trachomatis [4], in the assay with Chlamydia trachomatis [8], with Chlamydia trachomatis [10] and with Chlamydia trachomatis [12] was 0.06 µg/mL throughout. Further, the MBC in the assay on Chlamydia trachomatis [13], in the assay with Chlamydia trachomatis [16] and with Chlamydia trachomatis [20] was 0.06 µg/mL in each case.
Regarding `CC[C@H]1OC(=O)[C@H](C)[C@@H](O[C@H]2C[C@@](C)(OC)[C@@H](O)[C@H](C)O2)[C@H](C)[C@@H](O[C@@H]2O[C@H](C)C[C@H](N(C)C)[C@H]2O)[C@](C)(O)C[C@@H](C)C(=O)[C@H](C)[C@@H](O)[C@]1(C)O` [ERYTHROMYCIN], the minimal inhibitory concentration (MIC) in the assay with Chlamydia trachomatis [1], in the assay with Chlamydia trachomatis [3], with Chlamydia trachomatis [5], in the assay with Chlamydia trachomatis [6], with Chlamydia trachomatis [7] and in the assay with Chlamydia trachomatis [9] was 0.5 µg/mL in each case. Also, the MIC came to 0.5 µg/mL with Chlamydia trachomatis [11]; 0.5 µg/mL in the assay with Chlamydia trachomatis [14]; 1 µg/mL in the assay on Chlamydia trachomatis [15]; 0.5 µg/mL in the assay on Chlamydia trachomatis [17]; 0.5 µg/mL in the assay with Chlamydia trachomatis [18]; 1 µg/mL in the assay on Chlamydia trachomatis [19]. The MBC with Chlamydia trachomatis [2] was 1 µg/mL; in the assay on Chlamydia trachomatis [3], 1 µg/mL; in the assay with Chlamydia trachomatis [4], 1 µg/mL; in the assay with Chlamydia trachomatis [8] it was 2 µg/mL; in the assay with Chlamydia trachomatis [10] it was 1 µg/mL; in the assay on Chlamydia trachomatis [12], 1 µg/mL. The MBC with Chlamydia trachomatis [13], with Chlamydia trachomatis [16] and with Chlamydia trachomatis [20] was 1 µg/mL each time.
Consider `C[C@H]1COc2c(N3CCN(C)CC3)c(F)cc3c(=O)c(C(=O)O)cn1c23.C[C@H]1COc2c(N3CCN(C)CC3)c(F)cc3c(=O)c(C(=O)O)cn1c23.O` [LEVOFLOXACIN], for which the minimal inhibitory concentration (MIC) in the assay with Chlamydia trachomatis [1] was 0.25 µg/mL; with Chlamydia trachomatis [3] it was 0.5 µg/mL; with Chlamydia trachomatis [5], 0.5 µg/mL; in the assay with Chlamydia trachomatis [6], 0.5 µg/mL; with Chlamydia trachomatis [7], 0.5 µg/mL; with Chlamydia trachomatis [9], 0.5 µg/mL. Also, the minimal inhibitory concentration (MIC) in the assay with Chlamydia trachomatis [11], with Chlamydia trachomatis [14], in the assay on Chlamydia trachomatis [15], in the assay on Chlamydia trachomatis [17], in the assay on Chlamydia trachomatis [18] and in the assay on Chlamydia trachomatis [19] was 0.5 µg/mL throughout. Further, the MBC in the assay on Chlamydia trachomatis [2], in the assay with Chlamydia trachomatis [3], in the assay with Chlamydia trachomatis [4], in the assay with Chlamydia trachomatis [5], in the assay with Chlamydia trachomatis [8] and in the assay with Chlamydia trachomatis [9] was 0.5 µg/mL throughout. The minimum bactericidal concentration (MBC) with Chlamydia trachomatis [10] was 0.5 µg/mL; in the assay on Chlamydia trachomatis [12], 0.25 µg/mL; with Chlamydia trachomatis [13], 0.5 µg/mL; in the assay on Chlamydia trachomatis [15] it was 0.5 µg/mL; in the assay with Chlamydia trachomatis [16] it was 0.5 µg/mL; in the assay on Chlamydia trachomatis [20], 0.5 µg/mL.

Source of the values: ChEMBL document CHEMBL1671766, “In vitro activities of several antimicrobial agents against recently isolated and genotyped Chlamydia trachomatis urogenital serovars D through K” (2010).
